system: BJAB cells; assay: BJAB cell proliferation (Cell Titer Glo); type: cell-based; conditions: not given
How it was run: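 BJAB cells exposed to serially diluted compounds (0.1% DMSO final) for about 72 h at 37 °C. Proliferation read by Cell Titer Glo luminescence as percent of untreated controls; EC50 from non-linear regression of dose-response data.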

With Cc1nn(-c2nc(-c3ccc(Cl)c(Cl)c3)c(SC(C)C)s2)c(C(=O)O)c1-c1cccc(F)c1 [Compound 151, 1-(4-(3,4-dichlorophenyl)-5-(isopropylthio)thiazol-2-yl)-4-(3-fluorophenyl)-3-methyl-1H-pyrazole-5-carboxylic Acid] the EC50 was “A, B”.

same assay, conditions: Homo sapiens, read-out: EC50

First: Cc1nn(-c2nc(-c3ccc(Cl)c(Cl)c3)c(SC(C)C)s2)c(C(=O)O)c1-c1ccc(CO)cc1 [Compound 49, 1-(4-(3,4-dichlorophenyl)-5-(isopropylthio)thiazol-2-yl)-4-(4-(hydroxymethyl)phenyl)-3-methyl-1H-pyrazole-5-carboxylic acid]
Second: Cc1cc(-c2c(C)nn(-c3nc(-c4ccc(Cl)c(Cl)c4)c(SC(C)C)s3)c2C(=O)O)ccn1 [Compound 167, 1-(4-(3,4-dichlorophenyl)-5-(isopropylthio)thiazol-2-yl)-3-methyl-4-(2-methylpyridin-4-yl)-1H-pyrazole-5-carboxylic Acid]
The EC50 of the first is higher: > 50 µM for the first, 1 to 5 µM for the second. The second is the more potent here.

Compared with COc1cc(C#N)cc(-c2c(C)nn(-c3nc(-c4ccc(Cl)c(Cl)c4)c(SC(C)C)s3)c2C(=O)O)c1 [Compound 83, 4-(3-cyano-5-methoxyphenyl)-1-(4-(3,4-dichlorophenyl)-5-(isopropylthio)thiazol-2-yl)-3-methyl-1H-pyrazole-5-carboxylic acid], COc1cc(C)cc(-c2c(C)nn(-c3nc(-c4ccc(Cl)c(Cl)c4)c(SC(C)C)s3)c2C(=O)O)c1 [Compound 165, 1-(4-(3,4-dichlorophenyl)-5-(isopropylthio)thiazol-2-yl)-4-(3-methoxy-5-methylphenyl)-3-methyl-1H-pyrazole-5-carboxylic Acid] is lower in EC50: 5 to 10 µM for the first, 1 to 5 µM for the second.

First: Cc1cc(OC(C)C)cc(-c2c(C)nn(-c3nc(-c4ccc(Cl)c(Cl)c4)c(SC(C)C)s3)c2C(=O)O)c1 [Compound 97, 1-(4-(3,4-dichlorophenyl)-5-(isopropylthio)thiazol-2-yl)-4-(3-isopropoxy-5-methylphenyl)-3-methyl-1H-pyrazole-5-carboxylic Acid]
Second: Cc1cc(-c2c(C)nn(-c3nc(-c4ccc(Cl)c(Cl)c4)c(SC(C)C)s3)c2C(=O)O)cc(N(C)C)c1 [Compound 99, 1-(4-(3,4-dichlorophenyl)-5-(isopropylthio)thiazol-2-yl)-4-(3-(dimethylamino)-5-methylphenyl)-3-methyl-1H-pyrazole-5-carboxylic acid]
The EC50 of the first is lower: 1 to 5 µM for the first, 5 to 10 µM for the second.

First: Cc1nn(-c2nc(-c3ccc(C(F)(F)F)cc3)c(SC(C)C)s2)c(C(=O)NCCOCCOCCOCCN=[N+]=[N-])c1-c1cccc(F)c1 [Compound 249, N-(2-(2-(2-(2-azidoethoxy)ethoxy)ethoxy)ethyl)-4-(3-fluorophenyl)-1-(5-(isopropylthio)-4-(4-(trifluoromethyl)phenyl)thiazol-2-yl)-3-methyl-1H-pyrazole-5-carboxamide]
Second: Cc1nn(-c2nc(-c3cccc(C(F)(F)F)c3)c(SC(C)C)s2)c(C(=O)O)c1-c1cccc(F)c1 [Compound 253, 4-(3-fluorophenyl)-1-(5-(isopropylthio)-4-(3-(trifluoromethyl)phenyl)thiazol-2-yl)-3-methyl-1H-pyrazole-5-carboxylic acid]
The EC50 of the first is higher: > 20 µM for the first, 5 to 10 µM for the second. The second is the more potent here.

Cc1nn(-c2nc(-c3ccncc3)c(SC(C)C)s2)c(C(=O)O)c1-c1cc(Cl)cc(Cl)c1 [Compound 29, 4-(3,5-dichlorophenyl)-1-(5-(isopropylthio)-4-(pyridin-4-yl)thiazol-2-yl)-3-methyl-1H-pyrazole-5-carboxylic acid] and Cc1nn(-c2nc(-c3cnn(C)c3)c(SC(C)C)s2)c(C(=O)O)c1-c1cc(Cl)cc(Cl)c1 [Compound 28, 4-(3,5-dichlorophenyl)-1-(5-(isopropylthio)-4-(1-methyl-1H-pyrazol-4-yl)thiazol-2-yl)-3-methyl-1H-pyrazole-5-carboxylic Acid] cannot be ordered by EC50: > 25 µM for the first, > 25 µM for the second.

First: Cc1nn(-c2nc(-c3cc(C)c(=O)n(C)c3)c(SC(C)C)s2)c(C(=O)O)c1-c1cccc(F)c1 [Compound 208, 1-(4-(1,5-dimethyl-6-oxo-1,6-dihydropyridin-3-yl)-5-(isopropylthio)thiazol-2-yl)-4-(3-fluorophenyl)-3-methyl-1H-pyrazole-5-carboxylic Acid]
Second: Cc1nn(-c2nc(-c3ccccc3)c(SC(C)C)s2)c(C(=O)O)c1-c1cccc(F)c1 [Compound 202, 4-(3-fluorophenyl)-1-(5-(isopropylthio)-4-phenylthiazol-2-yl)-3-methyl-1H-pyrazole-5-carboxylic acid]
The EC50 of the first is higher: > 40 µM for the first, 10 to 25 µM for the second.

First: CCC(C)Sc1sc(-n2nc(C)c(-c3cc(Cl)cc(Cl)c3)c2C(=O)O)nc1-c1ccc(Cl)c(Cl)c1 (stereo not shown) [Compound 32b]
Second: Cc1nn(-c2nc(-c3ccc(Cl)c(Cl)c3)c(SC(C)C)s2)c(C(=O)O)c1-c1cn[nH]c1 [Compound 109, 2-(4-(3,4-dichlorophenyl)-5-(isopropylthio)thiazol-2-yl)-5-methyl-4,4′-bi(2H-pyrazole)-3-carboxylic acid]
The EC50 of the first is lower: 1 to 5 µM for the first, 25 to 50 µM for the second. The first is the more potent here.

First: Cc1nn(-c2nc(-c3ccc(Cl)c(Cl)c3)c(OC(C)C)s2)c(C(=O)O)c1-c1cccc(F)c1 [Compound 230, 1-(4-(3,4-dichlorophenyl)-5-isopropoxythiazol-2-yl)-4-(3-fluorophenyl)-3-methyl-1H-pyrazole-5-carboxylic acid]
Second: Cc1nn(-c2nc(-c3ccc(Cl)c(Cl)c3)c(F)s2)c(C(=O)O)c1-c1cccc(F)c1 [Compound 227, 1-(4-(3,4-dichlorophenyl)-5-fluorothiazol-2-yl)-4-(3-fluorophenyl)-3-methyl-1H-pyrazole-5-carboxylic acid]
The EC50 of the first is lower: 5 to 10 µM for the first, 10 to 25 µM for the second.

Compared with Cc1nn(-c2nc(-c3ccc(Cl)cc3Cl)c(SC(C)C)s2)c(C(=O)O)c1-c1cccc(F)c1 [Compound 178, 1-(4-(2,4-dichlorophenyl)-5-(isopropylthio)thiazol-2-yl)-4-(3-fluorophenyl)-3-methyl-1H-pyrazole-5-carboxylic Acid], Cc1nn(-c2nc(-c3cncc(C#N)c3)c(SC(C)C)s2)c(C(=O)O)c1-c1cccc(F)c1 [Compound 210, 1-(4-(5-cyanopyridin-3-yl)-5-(isopropylthio)thiazol-2-yl)-4-(3-fluorophenyl)-3-methyl-1H-pyrazole-5-carboxylic acid] is higher in EC50: 1 to 5 µM for the first, > 40 µM for the second. The first is the more potent here.

Cc1nn(-c2nc(-c3ccc(Cl)c(Cl)c3)c(SC(C)C)s2)c(C(=O)O)c1-c1cnn(CC(C)C)c1 [Compound 133, 2-(4-(3,4-dichlorophenyl)-5-(isopropylthio)thiazol-2-yl)-2′-isobutyl-5-methyl-4,4′-bi(2H-pyrazole)-3-carboxylic acid] and Cc1noc(C)c1-c1c(C)nn(-c2nc(-c3ccc(Cl)c(Cl)c3)c(SC(C)C)s2)c1C(=O)O [Compound 57, 1-(4-(3,4-dichlorophenyl)-5-(isopropylthio)thiazol-2-yl)-4-(3,5-dimethylisoxazol-4-yl)-3-methyl-1H-pyrazole-5-carboxylic acid] fall in the same range of EC50: 10 to 25 µM for the first, 10 to 25 µM for the second.

First: Cc1nn(-c2nc(-c3ccc(S(F)(F)(F)(F)F)cc3)c(SC(C)C)s2)c(C(=O)O)c1-c1cccc(F)c1 [Compound 255, 4-(3-fluorophenyl)-1-(5-(isopropylthio)-4-(4-(pentafluoro-λ^6-sulfaneyl)phenyl)thiazol-2-yl)-3-methyl-1H-pyrazole-5-carboxylic acid]
Second: COc1cc(-c2c(C)nn(-c3nc(-c4ccc(C(F)(F)F)cc4)c(SC(C)C)s3)c2C(=O)O)ccc1F [Compound 238, 4-(4-fluoro-3-methoxyphenyl)-1-(5-(isopropylthio)-4-(4-(trifluoromethyl)phenyl)thiazol-2-yl)-3-methyl-1H-pyrazole-5-carboxylic acid]
The EC50 of the first is lower: < 1 µM for the first, 1 to 5 µM for the second. The first is the more potent here.

First: Cc1cc(-c2c(C)nn(-c3nc(-c4cccc(Cl)c4)c(SC(C)C)s3)c2C(=O)O)cc(C)n1 [Compound 158, 1-(4-(3-chlorophenyl)-5-(isopropylthio)thiazol-2-yl)-4-(2,6-dimethylpyridin-4-yl)-3-methyl-1H-pyrazole-5-carboxylic Acid]
Second: Cc1cc(-c2c(C)nn(-c3nc(-c4ccc(C(F)(F)F)cc4)c(SC(C)C)s3)c2C)cc(C)n1 [Compound 232, 2-(4-(2,6-dimethylpyridin-4-yl)-3,5-dimethyl-1H-pyrazol-1-yl)-5-(isopropylthio)-4-(4-(trifluoromethyl)phenyl) thiazole]
The EC50 of the first is lower: 5 to 10 µM for the first, 25 to 50 µM for the second. The first is the more potent here.

First: Cc1nn(-c2nc(-c3ccc(Cl)c(Cl)c3)c(SC(C)C)s2)c(C(=O)O)c1Br [Compound 15, 4-bromo-1-(4-(3,4-dichlorophenyl)-5-(isopropylthio)thiazol-2-yl)-3-methyl-1H-pyrazole-5-carboxylic Acid]
Second: Cc1nn(-c2nc(-c3ccc(-c4cccc(F)c4)nc3)c(SC(C)C)s2)c(C(=O)O)c1Br [Compound 179, 4-bromo-1-(4-(6-(3-fluorophenyl)pyridin-3-yl)-5-(isopropylthio)thiazol-2-yl)-3-methyl-1H-pyrazole-5-carboxylic Acid]
The EC50 of the first is lower: 10 to 25 µM for the first, 25 to 50 µM for the second. The first is the more potent here.

First: Cc1nn(-c2nc(-c3ccc(Cl)c(Cl)c3)c(SC(C)C)s2)c(C(=O)N(C)CCN)c1-c1cc(C(F)(F)F)cc(C(F)(F)F)c1 [Compound 137, N-(2-aminoethyl)-4-(3,5-bis(trifluoromethyl)phenyl)-1-(4-(3,4-dichlorophenyl)-5-(isopropylthio)thiazol-2-yl)-N,3-dimethyl-1H-pyrazole-5-carboxamide]
Second: Cc1cc(-c2c(C)nn(-c3nc(-c4ccc(C(F)(F)F)cc4)c(SC(C)C)s3)c2C(=O)O)cc(C)c1F [Compound 241, 4-(4-fluoro-3,5-dimethylphenyl)-1-(5-(isopropylthio)-4-(4-(trifluoromethyl)phenyl)thiazol-2-yl)-3-methyl-1H-pyrazole-5-carboxylic acid]
The EC50 of the first is higher: 1 to 5 µM for the first, < 1 µM for the second. The second is the more potent here.

First: CCCSc1sc(-n2nc(C)c(Cc3ccccc3NS(C)(=O)=O)c2C(=O)O)nc1-c1ccc(Cl)c(Cl)c1 [Compound 13, 1-(4-(3,4-dichlorophenyl)-5-(propylthio)thiazol-2-yl)-3-methyl-4-(2-(methylsulfonamido)benzyl)-1H-pyrazole-5-carboxylic Acid]
Second: CCC(C)Sc1sc(-n2nc(C)c(Cc3ccccc3[N+](=O)[O-])c2C(=O)O)nc1-c1ccc(Cl)c(Cl)c1 (stereo not shown) [Compound 106, 1-(5-(sec-butylthio)-4-(3,4-dichlorophenyl)thiazol-2-yl)-3-methyl-4-(2-nitrobenzyl)-1H-pyrazole-5-carboxylic acid]
The EC50 of the first is higher: 25 to 50 µM for the first, 10 to 25 µM for the second. The second is the more potent here.
